Source: patent US10829501B2 (BRISTOL-MYERS SQUIBB COMPANY, priority 2016, dated 2020)

Biological target: ROCK2 (Homo sapiens, UniProt O75116)
Experiment: ROCK2 kinase inhibition assay (LABCHIP 3000 Reader, FITC peptide substrate);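 note: rho kinase reaction read by separating phosphorylated from unphosphorylated peptide on chip, with inhibition of kinase activity computed per concentration across a dose-response series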

ROCK2, sequence (O75116 whole entry, species assumed): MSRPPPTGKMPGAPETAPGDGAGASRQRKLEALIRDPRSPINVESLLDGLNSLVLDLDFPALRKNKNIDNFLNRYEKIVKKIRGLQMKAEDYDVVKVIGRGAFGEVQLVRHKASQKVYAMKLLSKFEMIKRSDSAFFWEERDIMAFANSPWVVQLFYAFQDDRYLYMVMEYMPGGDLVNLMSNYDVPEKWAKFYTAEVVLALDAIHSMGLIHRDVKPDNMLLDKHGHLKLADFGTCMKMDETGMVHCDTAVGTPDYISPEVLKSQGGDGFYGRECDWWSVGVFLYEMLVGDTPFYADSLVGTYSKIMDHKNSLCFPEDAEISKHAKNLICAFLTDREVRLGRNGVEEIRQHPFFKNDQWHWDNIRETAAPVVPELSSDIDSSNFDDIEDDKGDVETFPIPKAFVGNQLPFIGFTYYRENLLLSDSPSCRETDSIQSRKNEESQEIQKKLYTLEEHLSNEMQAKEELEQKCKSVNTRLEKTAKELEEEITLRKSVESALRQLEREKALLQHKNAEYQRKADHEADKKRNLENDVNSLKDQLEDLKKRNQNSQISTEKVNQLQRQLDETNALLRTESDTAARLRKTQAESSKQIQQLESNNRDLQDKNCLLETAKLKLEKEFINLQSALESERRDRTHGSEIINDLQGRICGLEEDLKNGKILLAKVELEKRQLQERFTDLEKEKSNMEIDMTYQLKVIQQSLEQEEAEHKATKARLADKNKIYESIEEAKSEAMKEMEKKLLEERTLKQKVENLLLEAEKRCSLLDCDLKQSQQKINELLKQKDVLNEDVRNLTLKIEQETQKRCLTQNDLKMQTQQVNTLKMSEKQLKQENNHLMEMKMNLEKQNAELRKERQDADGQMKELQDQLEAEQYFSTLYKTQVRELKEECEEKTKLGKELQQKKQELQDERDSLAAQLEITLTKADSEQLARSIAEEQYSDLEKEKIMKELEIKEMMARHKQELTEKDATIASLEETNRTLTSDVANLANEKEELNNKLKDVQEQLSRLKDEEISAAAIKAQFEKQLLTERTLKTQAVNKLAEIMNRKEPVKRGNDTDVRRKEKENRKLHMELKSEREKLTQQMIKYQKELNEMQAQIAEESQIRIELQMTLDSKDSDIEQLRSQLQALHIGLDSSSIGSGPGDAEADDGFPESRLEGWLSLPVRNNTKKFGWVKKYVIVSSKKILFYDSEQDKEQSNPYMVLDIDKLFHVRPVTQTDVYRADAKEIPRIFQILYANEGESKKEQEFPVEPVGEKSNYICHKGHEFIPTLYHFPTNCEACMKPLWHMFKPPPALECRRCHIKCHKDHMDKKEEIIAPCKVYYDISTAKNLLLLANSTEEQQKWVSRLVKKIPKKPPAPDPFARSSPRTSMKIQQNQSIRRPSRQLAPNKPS

CNC(=O)c1cc(-c2ccc(C(N)=O)c(OC3CC4(CC(NC(=O)c5cnn6cc(OCC(C)(C)O)ccc56)C4)C3)c2)ccc1F (stereo not shown) [Example 295, 4-fluoro-3′-((6-(6-(2-hydroxy-2-methylpropoxy)pyrazolo[1,5-a]pyridine-3-carboxamido)spiro[3.3]heptan-2-yl)oxy)-N3-methyl-[1,1′-biphenyl]-3,4′-dicarboxamide]
IC50: 5 to 50 nM

CC(C)(O)COc1ccc2c(C(=O)NC3CC4(C3)CC(Oc3cc(-c5cccc(C(=O)O)c5)ccc3C(N)=O)C4)cnn2c1 (stereo not shown) [Example 296, 4′-carbamoyl-3′-((6-(6-(2-hydroxy-2-methylpropoxy)pyrazolo[1,5-a]pyridine-3-carboxamido)spiro[3.3]heptan-2-yl)oxy)-[1,1′-biphenyl]-3-carboxylic acid]
IC50: 5 to 50 nM

CC(C)(O)COc1ccc2c(C(=O)NC3CC4(C3)CC(Oc3cc(-c5cccc(S(=O)(=O)NCCO)c5)ccc3C(N)=O)C4)cnn2c1 (stereo not shown) [Example 297, N-(6-((4-carbamoyl-3′-(N-(2-hydroxyethyl)sulfamoyl)-[1,1′-biphenyl]-3-yl)oxy)spiro[3.3]heptan-2-yl)-6-(2-hydroxy-2-methylpropoxy)pyrazolo[1,5-a]pyridine-3-carboxamide]
IC50: < 5 nM

CC(C)(O)COc1ccc2c(C(=O)NC3CC4(C3)CC(Oc3cc(-c5cccc(S(N)(=O)=O)c5)ccc3C(N)=O)C4)cnn2c1 (stereo not shown) [Example 298, N-(6-((4-carbamoyl-3′-sulfamoyl-[1,1′-biphenyl]-3-yl)oxy)spiro[3.3]heptan-2-yl)-6-(2-hydroxy-2-methylpropoxy)pyrazolo[1,5-a]pyridine-3-carboxamide]
IC50: < 5 nM

CC(C)(O)COc1ccc2c(C(=O)NC3CC4(C3)CC(Oc3cc(-c5ccc(F)c(-c6nnn[nH]6)c5)ccc3C(N)=O)C4)cnn2c1 (stereo not shown) [Example 299, N-(6-((4-carbamoyl-4′-fluoro-3′-(1H-tetrazol-5-yl)-[1,1′-biphenyl]-3-yl)oxy)spiro[3.3]heptan-2-yl)-6-(2-hydroxy-2-methylpropoxy)pyrazolo[1,5-a]pyridine-3-carboxamide]
IC50: 5 to 50 nM

CC(C)(O)COc1ccc2c(C(=O)NC3CC4(C3)CC(Oc3cc(CCCN)ccc3C(N)=O)C4)cnn2c1 (stereo not shown) [Example 300, N-(6-(5-(3-aminopropyl)-2-carbamoylphenoxy)spiro[3.3]heptan-2-yl)-6-(2-hydroxy-2-methylpropoxy)pyrazolo[1,5-a]pyridine-3-carboxamide]
IC50: < 5 nM

CC(C)(O)COc1ccc2c(C(=O)NC3CC4(C3)CC(Oc3cc(C5CCNC5)ccc3C(N)=O)C4)cnn2c1 (stereo not shown) [Example 301, N-(6-(2-carbamoyl-5-(pyrrolidin-3-yl)phenoxy)spiro[3.3]heptan-2-yl)-6-(2-hydroxy-2-methylpropoxy)pyrazolo[1,5-a]pyridine-3-carboxamide]
IC50: 5 to 50 nM

CC(C)(O)COc1ccc2c(C(=O)N[C@H]3CC4(C3)C[C@H](Oc3cc(Br)ccc3C(N)=O)C4)cnn2c1 (stereo partly drawn) [Example 302, N-((aR)-6-(5-bromo-2-carbamoylphenoxy)spiro[3.3]heptan-2-yl)-6-(2-hydroxy-2-methylpropoxy)pyrazolo[1,5-a]pyridine-3-carboxamide]
IC50: < 5 nM

NC(=O)c1ccccc1O[C@H]1CC2(C[C@H](NC(=O)c3cnn4ccccc34)C2)C1 (stereo partly drawn) [Example 303, N-((aR)-6-(2-carbamoylphenoxy)spiro[3.3]heptan-2-yl)pyrazolo[1,5-a]pyridine-3-carboxamide]
IC50: 50 to 250 nM

CC(C)(O)COc1ccc2c(C(=O)NC3CC4(C3)CC(Oc3cc(CC5CCNC5)ccc3C(N)=O)C4)cnn2c1 (stereo not shown) [Example 304, N-(6-(2-carbamoyl-5-(pyrrolidin-3-ylmethyl)phenoxy)spiro[3.3]heptan-2-yl)-6-(2-hydroxy-2-methylpropoxy)pyrazolo[1,5-a]pyridine-3-carboxamide]
IC50: 5 to 50 nM

CC(C)(O)COc1ccc2c(C(=O)NC3CC4(C3)CC(Oc3cc(CCCCN)ccc3C(N)=O)C4)cnn2c1 (stereo not shown) [Example 305, N-(6-(5-(4-aminobutyl)-2-carbamoylphenoxy)spiro[3.3]heptan-2-yl)-6-(2-hydroxy-2-methylpropoxy)pyrazolo[1,5-a]pyridine-3-carboxamide]
IC50: < 5 nM

CC(C)(O)COc1ccc2c(C(=O)NC3CC4(C3)CC(Oc3nc(OCCN)ncc3C(N)=O)C4)cnn2c1C1CC1 (stereo not shown) [Example 306, N-(6-((2-(2-aminoethoxy)-5-carbamoylpyrimidin-4-yl)oxy)spiro[3.3]heptan-2-yl)-7-cyclopropyl-6-(2-hydroxy-2-methylpropoxy)pyrazolo[1,5-a]pyridine-3-carboxamide]
IC50: 50 to 250 nM

[H][C@]1(Oc2ncccc2C(N)=O)C[C@@]2(C[C@H](NC(=O)c3cnn4c(Br)c(OCC(C)(F)F)ccc34)C2)C1 (stereo partly drawn) [Example 307, 7-bromo-N-((aR)-6-((3-carbamoylpyridin-2-yl)oxy)spiro[3.3]heptan-2-yl)-6-(2,2-difluoropropoxy)pyrazolo[1,5-a]pyridine-3-carboxamide]
IC50: 5 to 50 nM

CC(F)(F)COc1ccc2c(C(=O)N[C@H]3CC4(C3)C[C@H](Oc3ncccc3C(N)=O)C4)cnn2c1 (stereo partly drawn) [Example 308, N-((aR)-6-((3-carbamoylpyridin-2-yl)oxy)spiro[3.3]heptan-2-yl)-6-(2,2-difluoropropoxy)pyrazolo[1,5-a]pyridine-3-carboxamide]
IC50: < 5 nM

CC(F)(F)COc1ccc2c(C(=O)N[C@H]3CC4(C3)C[C@H](Oc3ncccc3C(N)=O)C4)cnn2c1C1CC1 (stereo partly drawn) [Example 309, N-((aR)-6-((3-carbamoylpyridin-2-yl)oxy)spiro[3.3]heptan-2-yl)-7-cyclopropyl-6-(2,2-difluoropropoxy)pyrazolo[1,5-a]pyridine-3-carboxamide]
IC50: < 5 nM

CC(F)(F)COc1ccc2c(C(=O)N[C@H]3CC4(C3)C[C@H](Oc3ncccc3C(N)=O)C4)cnn2c1-c1cn[nH]c1 (stereo partly drawn) [Example 310, N-((aR)-6-((3-carbamoylpyridin-2-yl)oxy)spiro[3.3]heptan-2-yl)-6-(2,2-difluoropropoxy)-7-(1H-pyrazol-4-yl)pyrazolo[1,5-a]pyridine-3-carboxamide]
IC50: < 5 nM

NC(=O)c1cccnc1O[C@H]1CC2(C[C@H](NC(=O)c3cnn4ccccc34)C2)C1 (stereo partly drawn) [Example 311, N-((aR)-6-((3-carbamoylpyridin-2-yl)oxy)spiro[3.3]heptan-2-yl)pyrazolo[1,5-a]pyridine-3-carboxamide]
IC50: 50 to 250 nM

NC(=O)c1cccnc1O[C@H]1CC2(C[C@H](NC(=O)c3cnn4cc(OC(F)F)ccc34)C2)C1 (stereo partly drawn) [Example 312, N-((aR)-6-((3-carbamoylpyridin-2-yl)oxy)spiro[3.3]heptan-2-yl)-6-(difluoromethoxy)pyrazolo[1,5-a]pyridine-3-carboxamide]
IC50: 5 to 50 nM

NC(=O)c1cccnc1O[C@H]1CC2(C[C@H](NC(=O)c3cnn4cc(OCC(F)F)ccc34)C2)C1 (stereo partly drawn) [Example 313, N-((aR)-6-((3-carbamoylpyridin-2-yl)oxy)spiro[3.3]heptan-2-yl)-6-(2,2-difluoroethoxy)pyrazolo[1,5-a]pyridine-3-carboxamide]
IC50: 5 to 50 nM

NC(=O)c1cccnc1O[C@H]1CC2(C[C@H](NC(=O)c3cnn4cc(OCC(O)C(F)(F)F)ccc34)C2)C1 (stereo partly drawn) [Example 314, N-((aR)-6-((3-carbamoylpyridin-2-yl)oxy)spiro[3.3]heptan-2-yl)-6-(3,3,3-trifluoro-2-hydroxypropoxy)pyrazolo[1,5-a]pyridine-3-carboxamide]
IC50: < 5 nM

NC(=O)c1cccnc1O[C@H]1CC2(C[C@H](NC(=O)c3cnn4cc(OCC(O)(C(F)(F)F)C(F)(F)F)ccc34)C2)C1 (stereo partly drawn) [Example 315, N-((aR)-6-((3-carbamoylpyridin-2-yl)oxy)spiro[3.3]heptan-2-yl)-6-(3,3,3-trifluoro-2-hydroxy-2-(trifluoromethyl)propoxy)pyrazolo[1,5-a]pyridine-3-carboxamide]
IC50: 5 to 50 nM

NC(=O)c1cccnc1O[C@H]1CC2(C[C@H](NC(=O)c3cnn4cc(N5CCC(F)(F)CC5)ccc34)C2)C1 (stereo partly drawn) [Example 316, N-((aR)-6-((3-carbamoylpyridin-2-yl)oxy)spiro[3.3]heptan-2-yl)-6-(4,4-difluoropiperidin-1-yl)pyrazolo[1,5-a]pyridine-3-carboxamide]
IC50: < 5 nM

NC(=O)c1cccnc1O[C@H]1CC2(C[C@H](NC(=O)c3cnn4cc(N5CCOCC5)ccc34)C2)C1 (stereo partly drawn) [Example 317, N-((aR)-6-((3-carbamoylpyridin-2-yl)oxy)spiro[3.3]heptan-2-yl)-6-morpholinopyrazolo[1,5-a]pyridine-3-carboxamide]
IC50: 5 to 50 nM

NC(=O)c1cccnc1O[C@H]1CC2(C[C@H](NC(=O)c3cnn4cc(N5CC[C@@H](F)C5)ccc34)C2)C1 (stereo partly drawn) [Example 318, N-((aR)-6-((3-carbamoylpyridin-2-yl)oxy)spiro[3.3]heptan-2-yl)-6-((R)-3-fluoropyrrolidin-1-yl)pyrazolo[1,5-a]pyridine-3-carboxamide]
IC50: < 5 nM

CN1CCN(c2ccc3c(C(=O)N[C@H]4CC5(C4)C[C@H](Oc4ncccc4C(N)=O)C5)cnn3c2)CC1 (stereo partly drawn) [Example 319, N-((aR)-6-((3-carbamoylpyridin-2-yl)oxy)spiro[3.3]heptan-2-yl)-6-(4-methylpiperazin-1-yl)pyrazolo[1,5-a]pyridine-3-carboxamide]
IC50: 5 to 50 nM

CC(C)c1c(OCC(C)(C)O)ccc2c(C(=O)N[C@H]3CC4(C3)C[C@H](Oc3ncccc3C(N)=O)C4)cnn12 (stereo partly drawn) [Example 320, N-((aR)-6-((3-carbamoylpyridin-2-yl)oxy)spiro[3.3]heptan-2-yl)-6-(2-hydroxy-2-methylpropoxy)-7-isopropylpyrazolo[1,5-a]pyridine-3-carboxamide]
IC50: 5 to 50 nM

Cc1c(OCC(C)(C)O)ccc2c(C(=O)N[C@H]3CC4(C3)C[C@H](Oc3ncccc3C(N)=O)C4)cnn12 (stereo partly drawn) [Example 321, N-((aR)-6-((3-carbamoylpyridin-2-yl)oxy)spiro[3.3]heptan-2-yl)-6-(2-hydroxy-2-methylpropoxy)-7-methylpyrazolo[1,5-a]pyridine-3-carboxamide]
IC50: 5 to 50 nM

NC(=O)c1cccnc1O[C@H]1CC2(C[C@H](NC(=O)c3cnc4cc(N5CC[C@H](F)C5)ccn34)C2)C1 (stereo partly drawn) [Example 322, N-((aR)-6-((3-carbamoylpyridin-2-yl)oxy)spiro[3.3]heptan-2-yl)-7-((S)-3-fluoropyrrolidin-1-yl)imidazo[1,2-a]pyridine-3-carboxamide]
IC50: < 5 nM
